According to article PMC10517971, “An inverse agonist of orphan receptor GPR61 acts by a G protein-competitive allosteric mechanism” (Nature Communications, 2023):

Legend:
[1] = target: T1, HiBit-tagged wild-type GPR61 (Homo sapiens, UniProt Q9BZJ8); test: Receptor expression studies (HiBit surface and total expression), CHO-K1 cells; format: cell-based; details: effect of compound, Fig. 2b, c
T1 construct: expressed in transfected cells; host or cells: CHO-K1, transient (Fugene6)
Description: The human GPR61 (reference sequence NM_031936.4) cDNA was synthesized and subcloned into pcDNA5/FRT/TO (Thermo Fisher, Pittsburgh, PA). The pcDNA5/FRT/TO/ human GPR61 plasmid was then transfected into the Flp-In™-CHO Cell Line (Thermo Fisher, Pittsburgh, PA) and a doxycycline-inducible clonal cell line was selected (CHO TREx hGPR61 WT). Sequences encoding untagged and HiBit/hemagglutinin (HA)-tagged versions of the wild-type human GPR61 were synthesized and cloned into pcDNA3.1. The HiBit ([…]) and HA ([…]) tags were sequentially included after the N-terminal initiator methionine. […]
Parental CHO-K1 cells were maintained at 37 °C in a humidified environment (5% CO2) and grown in Dulbecco’s Modified Eagle Medium (DMEM) F-12 media (Gibco, 11320033) supplemented with 10% FBS, 1% Glutamax (Gibco, 35050061) and 100units/ml penicillin and streptomycin (Gibco, 15140122. Cells were dissociated using a cell dissociation solution (Gibco, 13151-014), counted, and resuspended in complete culture media without antibiotics. Cells were then transiently transfected using Fugene6 (Promega) in a 384-well plate format (Corning, 3570). For each well, 7500 cells were transfected with 5 ng of receptor plasmid, 20 ng of carrier DNA (Promega, PAE4881) and 0.075 μl Fugene6 in a final volume of 25 μl. […]

Human PDE3A1 = Human PDE3A1 (Homo sapiens, UniProt Q14432); test: Phosphodiesterase Assay (SPA); format: biochemical
Chain of Human PDE3A1 (Q14432 whole entry): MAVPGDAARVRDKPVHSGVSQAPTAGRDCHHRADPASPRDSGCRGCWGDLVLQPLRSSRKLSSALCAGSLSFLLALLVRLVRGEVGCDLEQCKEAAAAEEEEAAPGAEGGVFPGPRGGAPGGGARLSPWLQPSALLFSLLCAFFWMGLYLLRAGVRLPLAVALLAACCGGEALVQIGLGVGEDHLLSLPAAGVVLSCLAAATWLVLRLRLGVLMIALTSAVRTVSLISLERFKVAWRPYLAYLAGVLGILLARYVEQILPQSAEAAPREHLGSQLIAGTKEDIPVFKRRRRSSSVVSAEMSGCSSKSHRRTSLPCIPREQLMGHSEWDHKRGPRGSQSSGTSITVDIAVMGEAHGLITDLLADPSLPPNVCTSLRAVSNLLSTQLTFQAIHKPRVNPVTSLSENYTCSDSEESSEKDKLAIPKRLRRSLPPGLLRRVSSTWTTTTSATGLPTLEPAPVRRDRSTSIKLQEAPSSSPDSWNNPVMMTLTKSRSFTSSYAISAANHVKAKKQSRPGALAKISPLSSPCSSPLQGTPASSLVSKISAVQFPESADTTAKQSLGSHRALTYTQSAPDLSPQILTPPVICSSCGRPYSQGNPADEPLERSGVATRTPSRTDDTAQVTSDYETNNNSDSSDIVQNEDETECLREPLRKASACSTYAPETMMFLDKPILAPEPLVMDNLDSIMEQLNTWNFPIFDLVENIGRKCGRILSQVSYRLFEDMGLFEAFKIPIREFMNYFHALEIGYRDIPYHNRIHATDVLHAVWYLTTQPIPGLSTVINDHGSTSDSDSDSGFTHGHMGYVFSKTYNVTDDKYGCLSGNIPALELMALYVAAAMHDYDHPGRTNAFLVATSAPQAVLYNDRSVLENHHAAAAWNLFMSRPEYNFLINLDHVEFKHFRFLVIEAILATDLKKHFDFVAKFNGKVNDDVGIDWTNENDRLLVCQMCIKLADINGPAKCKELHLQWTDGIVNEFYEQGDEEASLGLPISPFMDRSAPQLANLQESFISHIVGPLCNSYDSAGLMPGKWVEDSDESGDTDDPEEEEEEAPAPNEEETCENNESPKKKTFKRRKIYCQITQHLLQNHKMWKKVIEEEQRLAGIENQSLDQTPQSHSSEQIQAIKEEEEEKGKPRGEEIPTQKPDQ
Description: (§1) 45 37 °C for 30 min (DAT) or 60 min (NET and SER T). The plate is transferred to the FLIPR Tetra®
(§2) 46 instrument and the fluorescence of each well was measured (Ex 470- 495 […]).
(§3) 47 The level of fluores cenc e measured dire ctly relates to the level of uptake of the dye labelled amine,
(§4) 48 with a reduction in levels being related to an inhibition of the respective transporter.
(§5) 49 Phosphodiesterase Assays
(§6) 50 The phosphodiesteras e (P DE) assays m easure the conversion of 3’, 5 ’ -[3H ] cAMP to 5’-[3H] AMP
(§7) 51 (for PDE 3A1 and 4D3) or 3’, 5’-[3H] cGMP to 5’-[3H] GMP (for 5A1) by the relevant PDE
(§8) 52 enzyme subtype. Yttrium silicate (YSi) scintillation proximity (SPA) beads bind selectively to 5’-
(§9) 53 [3H] AMP or 5’-[3H] GMP, with the magnitude of radioactive counts being directly related to
(§10) 54 PDE enzymatic activity. The ass ay was performed in white walled op aque b ottom 384-well plates.
55 Test compound (1 µL) in dimethyl sulfoxide was added to each well. Enzyme solution was then
56 added to each well in buffer (in mM: Trizma, 50 (pH7.5); MgCl2, 1.3 mM) containing Brij 35
57 (0.01% (v/v)). Subsequently, 20 µL of 3’,5’-[3H] cGMP (125 nM) or 20 µL of 3’,5’-[3H] cAMP
58 (50 nM) was added to each well to start the reaction and the plate was incubated for 30 min at
59 25 °C. The reaction was terminated by the addition of 20 µL of PDE YSi SPA beads (Perkin Elmer,
60 Waltham, MA). Followin g an additional 8 h incubation period the plates were read on a MicroBeta
61 radioactive plat e counter (Perkin Elmer, Waltham, MA, USA) to determine radioactive counts per
63 Bromodomain-Containing Protein 4 (BRD4) Binding Assay
64 The BRD4 fluorescent polarization binding assay uses purified His-tagged BRD4 protein and its
65 interaction with a Cy5 labelled small molecule probe that binds to the BRD4 site involved in the
66 interaction with tetra-acetylated histone H4 peptide. In brief, the assay is performed in low volume

BRD4 = BRD4 (Homo sapiens, UniProt O60885); test: Bromodomain-Containing Protein 4 (BRD4) fluorescence polarization Binding Assay
Description: as §1, §2, §3, §4, §5, §6, §7, §8, §9, §10
55 Test compound (1 µL) in dimethyl sulfoxide was added to each well. Enzyme solution was then […]
60 Waltham, MA). Followin g an additional 8 h incubation period the plates were read on a MicroBeta […]
71 temperature fluorescence polarization measurements were made using an Envision plate reader […]
76 of the product color, measured at 405 nm, is proportionate to the enzyme activity in the sample. […]
81 read at the 20 min time point. […]

Acetylcholinesterase = Acetylcholinesterase (Homo sapiens, UniProt P22303); test: Acetylcholinesterase Assay (Ellman); format: biochemical
Chain of Acetylcholinesterase (P22303 32-614, species assumed): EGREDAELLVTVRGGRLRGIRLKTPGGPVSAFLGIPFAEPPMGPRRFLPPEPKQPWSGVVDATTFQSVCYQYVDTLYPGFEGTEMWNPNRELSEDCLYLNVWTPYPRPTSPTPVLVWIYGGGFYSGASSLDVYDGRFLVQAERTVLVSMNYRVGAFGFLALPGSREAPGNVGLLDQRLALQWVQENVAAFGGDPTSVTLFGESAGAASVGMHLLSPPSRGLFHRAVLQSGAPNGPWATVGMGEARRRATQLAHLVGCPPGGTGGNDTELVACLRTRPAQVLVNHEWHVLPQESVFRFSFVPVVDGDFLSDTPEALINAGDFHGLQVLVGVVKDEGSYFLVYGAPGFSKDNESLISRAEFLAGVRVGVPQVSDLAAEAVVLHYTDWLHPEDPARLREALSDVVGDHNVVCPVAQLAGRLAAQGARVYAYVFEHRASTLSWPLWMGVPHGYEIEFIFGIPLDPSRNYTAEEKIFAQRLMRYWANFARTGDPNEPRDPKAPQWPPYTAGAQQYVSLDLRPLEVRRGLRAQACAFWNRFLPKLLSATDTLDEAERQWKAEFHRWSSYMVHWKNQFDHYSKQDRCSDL
Description: 67 black 384 well flat -bottomed polystyrene plates. Compound/vehicle or standard (5 µL) were added
68 to wells followed by His -tagged BRD4 (10 µL; 40 nM final concentration in assay). Following a
69 15 min incubation at room temperature a propri etary Cy5 -labelled probe molecule (5 µL; 2 nM
70 final concentration in assay) was added. Following, an additional 16 h incubation at room
71 temperature fluorescence polarization measurements were made using an Envision plate reader
72 (Perkin Elmer, Waltham, MA, USA) and mP values were used for analysis .
73 Acetylcholinesterase As say
74 The assay described is based on Ellmans method, in which thiocholine produced by the action of
75 acetylcholinesterase forms a yellow color with 5,5'- dithiobis(2- nitrobenzoic acid). The intensity
76 of the product color, measured at 405 nm, is proportionate to the enzyme activity in the sample.
77 To each well of a clear 96 polystyrene plate 90 µL enzyme solution (1mU/well) or phosphate
78 buffered saline (PBS) and 10 µL compound/standard or vehicle was added. The plate was
79 incubated at room temperature for 15 min. Subsequently 100 µL of substrate/detection reagent
80 (800 µM acetylthiocholine/1mM 5,5'- dithiobis(2- nitrobenzoic acid)) was added and the plate was
81 read at the 20 min time point.
83 Human embryonic kidney (HEK) cells stably transfected with a doxycycline inducible plasmid […]

T1 sequence (Q9BZJ8 whole entry): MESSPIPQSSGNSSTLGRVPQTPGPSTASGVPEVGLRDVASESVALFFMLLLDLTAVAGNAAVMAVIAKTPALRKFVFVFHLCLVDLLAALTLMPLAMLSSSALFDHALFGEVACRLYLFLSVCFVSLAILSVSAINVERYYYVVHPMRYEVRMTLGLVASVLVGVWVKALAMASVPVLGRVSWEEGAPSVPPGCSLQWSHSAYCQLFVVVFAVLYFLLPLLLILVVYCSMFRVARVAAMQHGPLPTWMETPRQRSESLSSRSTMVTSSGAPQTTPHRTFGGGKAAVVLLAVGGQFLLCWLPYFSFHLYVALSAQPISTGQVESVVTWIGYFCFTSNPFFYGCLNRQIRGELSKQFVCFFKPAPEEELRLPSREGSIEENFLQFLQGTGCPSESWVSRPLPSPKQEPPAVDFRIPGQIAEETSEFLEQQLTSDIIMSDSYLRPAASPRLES

## CCOc1cc(C)nc(N(CCOC)S(=O)(=O)c2ccc(NCc3c(F)cncc3F)nc2OC)n1 [Compound 1]
[1]
  cell surface expression of HiBit-tagged wild-type GPR61: increased
Human PDE3A1
  IC50: 18.4 µM
BRD4
  IC50: > 25 µM
Acetylcholinesterase
  IC50: > 50 µM
